System: intraocular pressure in piglets
Conditions: for IC50: pig, in vivo; for effect on basal intraocular pressure: piglet, peptide in saline applied topically as drops, monitored for 15 min
Procedure: Method: Newborn pigs (1–3 days old) were anesthetized with 1.5% halothane for tracheostomy and catheterization of the right femoral vein for drug administration. Animals were ventilated by means of a Harvard small animal respirator with a gas mixture of 25% O2 and 75% N2. Halothane was discontinued after surgery and immediately thereafter the animals were sedated with Alpha-chloralose (50 mg/kg i.v.) and paralyzed with pancuronium (0.1 mg/kg i.v.). Animals were placed under radiant warmer to keep their body temperature at 37° C. A butterfly needle (24G) is inserted into the anterior chamber of both eyes and connected to a Statham pressure transducer connected to a Gould multichannel recorder. Intraocular pressure is then allowed to stabilize for 15 minutes. […] The intraocular pressure was monitored for 15 minutes at which time a maximal effect was observed.
Peptides dissolved in saline were applied to the eye after 15 min of stabilization of intraocular pressure and changes in pressure were monitored for 15 min. The deviation (negative for hypotension) was plotted as a function of time (min).
The experiments were done as above, except that intraocular pressure was plotted versus the dose of peptide used.

Row | IC50 | Compound | effect on basal intraocular pressure
1 | 0.342 µM | CC[C@H](C)[C@H](N)C(=O)N[C@@H](Cc1ccccc1)C(=O)N[C@@H](CC(=O)O)C(=O)N[C@@H](CO)C(=O)N[C@H](C(=O)N[C@@H](CCC(=O)O)C(=O)N[C@@H](CS)C(=O)N[C@@H](Cc1c[nH]c2ccccc12)C(=O)O)[C@@H](C)O [Peptide 1405, NH2-Ile Phe Asp Ser Thr Gln Cys Trp-OH] | produced a decrease in ocular pressure
2 | 0.0864 µM | H-HIICSPLR-OH [Peptide 1402, NH2-His Ile Ile Cys Ser Pro Leu Arg-OH] | produced a decrease in ocular pressure
3 |  | NH2-Phe Ser Leu Thr Gln Lys Tyr Cys-OH (H-FSLTQKYC-OH) [Peptide 1401] | produced a decrease in ocular pressure
